# Values quoted from earlier work as cited in patent US4925674A (hiMedics, Inc., priority 1988, dated 1990).
# Conditions: well known
compound,measurement,value
"CC1(C)S[C@@H]2[C@H](NC(=O)[C@H](N)c3ccc(O)cc3)C(=O)N2[C@H]1C(=O)O [Amoxicillin, amoxicillin]",dose-related gastrointestinal upsets,"dose-related gastrointestinal upsets (epigastric distress, nausea, vomiting, and especially diarrhea) occur commonly"
